Experimental data from PubChem BioAssay AID179 (DTP/NCI, 2004).
Calls of active or inactive are those of the source.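 Rule for the calls: active = compounds giving half or more protection of infected cells from virus-caused growth loss, again on retest; inactive = the rest.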 Where a SMILES comes first, the peptide text is derived from it. [ ]: non-standard residue; d: D form. The star is where a group is joined. X10 = CC(C)CN(C[C@@H](O)[C@H](Cc1ccc(OCC(=O)*)cc1)NC(=O)O[C@H]1CCOC1)S(=O)(=O)c1ccc(N)cc1; NMeLeu(3R-OH) = CN[C@H](C(=O)O)[C@H](O)C(C)C; NMeL = CN[C@@H](CC(C)C)C(=O)O; NMeV = CN[C@H](C(=O)O)C(C)C; dNMeS = CN[C@H](CO)C(=O)O; Abu = CC[C@H](N)C(=O)O

Tested on: CEM cells HIV-1 protection, formazan growth assay
Experiment: NCI AIDS Antiviral Assay
Conditions: for IC50: measured here: growth of uninfected CEM cells
Summary of the method: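 Screen of anti-HIV-1 activity in human CEM cells using a formazan-based growth measurement at five drug concentrations. Hits with 50% or greater protection were repeated, and confirmation required reproducible complete protection.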

Structure (SMILES) | EC50 | IC50 | outcome
COc1ccc(C(=O)CC(c2ccc3c(c2)OCO3)c2c(O)c3ccccc3oc2=O)cc1OC (stereo not given) | > 200 µM | 89.1 µM | –
N#CNC(N)=Nc1ccc(Cl)cc1 | – | – | inactive
O=C(O)c1ccccc1-n1nc(C(=O)O)c(N=Nc2ccc(/C=C/c3ccc(N=Nc4c(C(=O)O)nn(-c5ccccc5C(=O)O)c4O)cc3S(=O)(=O)O)c(S(=O)(=O)O)c2)c1O | > 0.977 µM | > 0.977 µM | –
N#C/C(=C\c1ccc(F)cc1)c1nc(-c2cc3ccccc3oc2=O)cs1 | – | – | inactive
COc1ccc2c(c1)C=C(C(C)(C)C)NS2(=O)=O | > 97.7 µM | > 97.7 µM | –
O=S1(=O)CC2C3C=CC(O3)C21 (stereo not given) | > 1450 µM | > 1450 µM | –
COc1cc2c(c(OC)c1OC)-c1oncc1CC2 | 166 µM | 282 µM | –
Cc1cccc(C(C)(C)C)c1NC(=O)CC1C(=O)Nc2ccccc2S1(=O)=O (stereo not given) | > 1.86 µM | > 1.86 µM | –
Nc1ccnc(N)c1N=O | > 200 µM | 27.5 µM | –
Cc1csc2nc(-c3cccs3)nn12 | > 200 µM | > 200 µM | –
Cc1ccc2c(c1)C(=O)N(CC[P+](c1ccccc1)(c1ccccc1)c1ccccc1)C2=O | > 200 µM | 30.9 µM | –
Cc1ccc(/C=N/n2c(-c3ccc(C)cc3)n[nH]c2=O)cc1 | > 200 µM | > 200 µM | –
CC(=O)O[C@@H]1O[Si](C(C)(C)C)(C(C)(C)C)[C@H](C)[C@H]1C | > 100 µM | > 100 µM | –
c1ccc2c(c1)N=C(c1cccc3ccccc13)CC(c1cccc3ccccc13)S2 (stereo not given) | > 2.51 µM | > 2.51 µM | –
S=C1SC(c2ccc(Cl)cc2)(c2ccc(Cl)cc2)c2ccccc21 | > 200 µM | 123 µM | –
O=[N+]([O-])c1ccc2[nH]nc(OCc3ccccn3)c2c1 | 115 µM | > 200 µM | –
O=C1SC(=NC2CCCCC2)N(C2CCCCC2)/C1=C1\C(=O)SC(=NC2CCCCC2)N1C1CCCCC1 | > 26.9 µM | > 26.9 µM | –
O=c1[nH]c(=S)[nH]c2[nH]c(=S)[nH]c12 | > 200 µM | > 200 µM | –
COC1(OC)c2occc2C(=N)c2ccc(=O)oc21 | > 200 µM | 129 µM | –
N#CCCN(C1=NN(C(=O)CC(=O)Nc2ccccc2)C(c2ccccc2)C1)c1ccccc1Cl (stereo not given) | > 269 µM | > 269 µM | –
COc1ccc(-c2csc(=Nc3ccccc3)n2CCCN(C)C)cc1 | > 200 µM | 16.2 µM | –

Structure (SMILES) | EC50 | IC50 | outcome
Cc1ncc(CO)c(CO)c1S | > 200 µM | > 200 µM | –
COc1cc2c(c(OC)c1OC)C1=NNC(=O)C1(C)CC2 (stereo not given) | > 617 µM | 479 µM | –
Cc1ccc(NC(=O)CSc2nnc(Cc3ccccc3)o2)c(C)c1 | > 141 µM | 135 µM | –
CCOC(=O)c1cc(C(=O)c2ccccc2)n2nc(-c3ccc(Cl)cc3)ccc12 | > 50.1 µM | > 50.1 µM | –
O=C(OCc1ccccc1)N1N=NC2C3CC(OCc4ccccc4)(OCc4ccccc4)C(O3)C21 (stereo not given) | > 10.7 µM | > 10.7 µM | –
CCOc1ccc(N(CC(=O)N2CC(=O)Nc3cc(C)c(C)cc32)C(C)=O)cc1 | > 13.2 µM | > 13.2 µM | –
COC(=O)Cc1cc(=O)n2c([nH]c3ccccc32)c1C#N | > 25.7 µM | > 25.7 µM | –
O=C(C[n+]1ccccc1Br)c1ccc2ccccc2c1 | > 200 µM | 9.55 µM | –
[N-]=[N+]=Nc1c(Cl)c(=O)n(-c2ccccc2)c2ccccc12 | > 200 µM | 29.5 µM | –
Nc1c(O)cc(N=C2C(=O)C=CC=C2C(=O)O)c(O)c1C(=O)O | – | – | inactive
O=C(c1ccccc1)c1ccsc1C(=O)O | > 200 µM | > 200 µM | –
COc1ccc(OC)c2c(=S)c3ccccc3[nH]c12 | – | – | inactive
O=C1C[C@@H]2[C@@H](CCC23CC3)N1 | > 1660 µM | > 1660 µM | –
COC(=O)c1ccc(NCC2=CC(=O)C=CC2=O)cc1O | > 200 µM | 4.47 µM | –
Cn1cnc([N+](=O)[O-])c1Sc1nc(N)nc2nc[nH]c12 | > 200 µM | 3.39 µM | –
NC(=O)NC1=NCCC(=O)N1CCc1c[nH]c2ccccc12 | > 200 µM | 12.3 µM | –
NCC(=O)NC1OC(COP(=O)(O)O)C(O)C1O (stereo not given) | > 200 µM | > 200 µM | –
NS(=O)(=O)c1ccc(NC(=O)/C=C/C(=O)O)cc1 | > 200 µM | > 200 µM | –
CCOc1csc([C@H]2CCC3[C@@H]4CC=C5C[C@@H](O)CC[C@]5(C)C4CC[C@@]32C)n1 (stereo not given in full) | > 3.39 µM | > 3.39 µM | –
COc1ccc(CCN2C(=O)c3cccc4c(Br)ccc(c34)C2=O)cc1 | > 200 µM | 105 µM | –
Nc1c(Br)cc(/C=C2\C=Cc3ccccc32)cc1Br | > 10 µM | > 10 µM | –

Structure (SMILES) | EC50 | IC50 | outcome
COc1cc2c3c(c1)C(O)CC[N+]3(C)CCC2 (stereo not given) | > 200 µM | > 200 µM | –
O=[N+]([O-])c1ccc2nc(/C=C(\O)c3ccccc3)c(/C=C(\O)c3ccc(Cl)cc3)nc2c1 | > 100 µM | 11 µM | –
COc1c2cc([N+](=O)[O-])cc1CN(C(=O)C(F)(F)F)CCOCCN(C(=O)C(F)(F)F)C2 | > 200 µM | > 200 µM | –
Clc1ccccc1-c1nn2c(CCCCCCCCc3nnc4sc(-c5ccccc5Cl)nn34)nnc2s1 | > 200 µM | 105 µM | –
CCOC(=O)c1cnc2c(cnn2CC)c1NN=C(C)C | > 200 µM | 117 µM | –
O=C1c2ccccc2-c2nccc3ccnc1c23 | – | – | inactive
N#CC12C(=O)NC(=O)C1(C#N)C1C=CC2CC1 (stereo not given) | > 200 µM | > 200 µM | –
N#Cc1c(-c2ccccc2)cc(-c2ccccc2)[nH]c1=O | > 36.3 µM | > 36.3 µM | –
C#CC1(O)CCC2C3CCC4=Cc5oncc5CC4(C)C3CCC21C (stereo not given) | > 200 µM | 39.8 µM | –
COc1ccc2c(c1OC)C(=O)C2 | > 200 µM | > 200 µM | –
CCC(C)C(NC(=O)C(CCC(=O)O)NC(=O)C(CCCCN)NC(=O)C(CO)NC(=O)C(CC(C)C)NC(=O)C(Cc1ccc(O)cc1)NC(=O)C(C)N)C(=O)NC(C)C(=O)NC(CO)C(=O)NC(CC(=O)O)C(=O)O (stereo not given) (H-AYLSKEIASD-OH; configuration not given here) | > 29.5 µM | > 29.5 µM | inactive
O=C1C2CCc3cnn(-c4ccccc4)c3C2C(=O)N1c1ccccc1 (stereo not given) | > 200 µM | > 200 µM | –
CNC1C(OC2C(OC3C(O)C(O)C(O)C(O)C3O)OC(C)C2(O)CO)OC(CO)C(O)C1O (stereo not given) (tested in a mixture with another compound) | – | – | inactive
O=c1[nH]c2nc3ccccc3c(=O)n2/c1=C/c1cccs1 | > 200 µM | 110 µM | –
CC1=NN2C(c3ccc(Cl)cc3)=CSC2=NC(C)(C)C1 | > 162 µM | 93.3 µM | –
CC[C@@H]1NC(=O)[C@H]([C@H](O)C(C)C)N(C)C(=O)[C@H](C(C)C)N(C)C(=O)[C@H](CC(C)C)N(C)C(=O)[C@H](CC(C)C)N(C)C(=O)[C@@H](C)NC(=O)[C@H](CCCCNC(=O)COc2ccc(C[C@H](NC(=O)O[C@H]3CCOC3)[C@H](O)CN(CC(C)C)S(=O)(=O)c3ccc(N)cc3)cc2)NC(=O)[C@H](CC(C)C)N(C)C(=O)[C@H](C(C)C)NC(=O)[C@H](CC(C)C)N(C)C(=O)[C@@H](CO)N(C)C1=O (cyclo([NMeLeu(3R-OH)][Abu][dNMeS][NMeL]V[NMeL]K(X10)[dA][NMeL][NMeL][NMeV])) | 0.0501 µM | 42.7 µM | –
O=C(O)CCSC(=O)Nc1ccccc1 | – | – | inactive
CN=C1N[N+]2=CCSCC2(C)S1 (stereo not given) | – | – | inactive
O=[N+]([O-])c1ccc(OCc2nc3ccccc3[nH]2)cc1 | > 200 µM | 87.1 µM | –
Fc1ccc(NC2=NCCN=C(Nc3ccc(F)cc3)SS2)cc1 | > 200 µM | 24.5 µM | –
C=CC12CCC(CC1)n1c(=O)n(C)c(=O)n12 | > 200 µM | > 200 µM | –

Structure (SMILES) | EC50 | IC50 | outcome
Brc1ccccc1C1SCc2nc3ccccc3n21 (stereo not given) | – | – | inactive
C=C1C(OC(=O)C(O)C(c2ccccc2)N(C)C)CC(OC(C)=O)[C@]2(C)C1C[C@@H]1CC(=O)C(C)=C([C@@H](OC(C)=O)C2OC(C)=O)C1(C)C (stereo not given in full) | > 93.3 µM | > 93.3 µM | –
O=c1[nH]c2ccccc2c2oc3ccccc3c12 | > 200 µM | > 200 µM | –
c1ccc2c(c1)[nH]c1c2nc2ccccn21 | > 1020 µM | > 1020 µM | inactive
CCC1(N=[N+]=[N-])C(=O)c2ccccc2N(c2ccccc2)C1=O (stereo not given) | > 200 µM | > 200 µM | –
O=C(c1ccccc1)[C@@]12COc3ccccc3[C@@H]1ON=C2c1ccccc1 | > 10.7 µM | > 10.7 µM | –
O=C1C=CC2(CCC23C=CC(=O)O3)O1 (stereo not given) | > 135 µM | 7.94 µM | –
S=C(NCc1ccccc1)N/N=C/c1ccccn1 | > 20 µM | 0.141 µM | –
CCCCI(O)OS(=O)(=O)c1ccc(C)cc1 | – | – | inactive
COc1ccc2nc3c4ccccc4scc-3c2c1 | > 200 µM | 0.295 µM | –
NC(CSSCC(N)Cc1ccccc1)Cc1ccccc1 (stereo not given) | > 617 µM | 20.4 µM | –
O=C(Cn1ccnc1[N+](=O)[O-])NCc1ccccc1 | – | – | inactive
Cc1cccc2c1Oc1cc(Cl)ccc1C2NC(=O)CN(C)C (stereo not given) | > 77.6 µM | 72.4 µM | –
CCn1c2c(c3ccccc31)C(c1ccccc1)CC1C(=O)N(c3ccccc3)C(=O)C21 (stereo not given) | > 11.7 µM | > 11.7 µM | –
C/C(Cl)=N/OC(=O)Nc1ccc(F)c([N+](=O)[O-])c1 | > 200 µM | 3.24 µM | –
CCCC(=O)c1c(NOC2OC(COC(C)=O)C(OC(C)=O)C(OC(C)=O)C2OC(C)=O)nc(OC)n(C)c1=O (stereo not given) | > 63.1 µM | > 63.1 µM | –
COc1cc2cc[n+](C)c(Cc3ccc(Oc4cc(Cc5c6cc(OC)c(OC)cc6cc[n+]5C)ccc4OC)cc3)c2cc1OC | – | – | inactive
CC(C)/C=C/c1cc(/C=C/C(=O)c2cc(/C=C/C(C)C)c(O)cc2O)ccc1O | – | – | inactive
COC(=O)c1cc(=O)n(-c2ccc3nn(C)nc3c2)cc1C(=O)OC | > 200 µM | > 200 µM | –
O=C(O)c1ccc2c3c(ncnc13)-c1ccccc1C2=O | > 200 µM | 14.8 µM | –
